# From ChEMBL document CHEMBL3112501, “Design, synthesis and preliminary bioactivity studies of 1,2-dihydrobenzo[d]isothiazol-3-one-1,1-dioxide hydroxamic acid derivatives as novel histone deacetylase inhibitors” (Bioorg Med Chem, 2014)
# Molecular target: Histone deacetylase (HDAC1 and HDAC2) (Homo sapiens, UniProt Q13547+Q92769)
# Experiment: Inhibition of HDAC1/2 in human HeLa cell extracts using acetylated histone peptide as substrate after 30 mins
# Assay type: protein assay
smiles,measurement,value
O=C(CCCCCN1C(=O)c2ccc(NC(=O)Cc3ccccc3)cc2S1(=O)=O)NO,IC50,244 nM
